Values joined by “and” are separate entries in the source; they are usually repeats but may differ in a detail not shown here. Equal entries are not always repeated.
Columns and labels:
Assay in all cases: Kinase inhibitor specificity profiling (Reaction Biology Corporation)
Assay type in all cases: biochemical
Design in all cases: % Enzyme Activity (relative to DMSO controls): concentration or dose not given beside the values
[1] = target: T1, panel of 370 protein kinases (Homo sapiens, UniProt Q8N752); details: 2 h, kinase CK1a1L; read-out: % Enzyme Activity (relative to DMSO controls)
T1 construct: purchased Reaction Biology Corporation (assay service)

[2] = target: T2, panel of 370 protein kinases (Homo sapiens, UniProt Q9UF33); details: 2 h, kinase EPHA6; read-out: % Enzyme Activity (relative to DMSO controls)
T2 construct: purchased Reaction Biology Corporation (assay service)

[3] = target: T3, panel of 370 protein kinases (Homo sapiens, UniProt Q8IVT5); details: 2 h, kinase KSR1; read-out: % Enzyme Activity (relative to DMSO controls)
T3 construct: purchased Reaction Biology Corporation (assay service)

[4] = target: T4, panel of 370 protein kinases (Homo sapiens, UniProt Q14680); details: 2 h, kinase MELK; read-out: % Enzyme Activity (relative to DMSO controls)
T4 construct: purchased Reaction Biology Corporation (assay service)

[5] = target: T5, panel of 370 protein kinases (Homo sapiens, UniProt P36897); details: 2 h, kinase ALK5/TGFBR1; read-out: % Enzyme Activity (relative to DMSO controls)
T5 construct: purchased Reaction Biology Corporation (assay service)

[6] = target: T6, panel of 370 protein kinases (Homo sapiens, UniProt Q13237); details: 2 h, kinase PKG2/PRKG2; read-out: % Enzyme Activity (relative to DMSO controls)
T6 construct: purchased Reaction Biology Corporation (assay service)

[7] = target: T7, panel of 370 protein kinases (Homo sapiens, UniProt P28482); details: 2 h, kinase ERK2/MAPK1; read-out: % Enzyme Activity (relative to DMSO controls)
T7 construct: purchased Reaction Biology Corporation (assay service)

[8] = target: T8, panel of 370 protein kinases (Homo sapiens, UniProt Q6DT37); details: 2 h, kinase DMPK2; read-out: % Enzyme Activity (relative to DMSO controls)
T8 construct: purchased Reaction Biology Corporation (assay service)

[9] = target: T9, panel of 370 protein kinases (Homo sapiens, UniProt P31749); details: 2 h, kinase AKT1; read-out: % Enzyme Activity (relative to DMSO controls)
T9 construct: purchased Reaction Biology Corporation (assay service)

[10] = target: T10, panel of 370 protein kinases (Homo sapiens, UniProt Q8WXR4); details: 2 h, kinase MYO3b; read-out: % Enzyme Activity (relative to DMSO controls)
T10 construct: purchased Reaction Biology Corporation (assay service)

[11] = target: T11, panel of 370 protein kinases (Homo sapiens, UniProt P29317); details: 2 h, kinase EPHA2; read-out: % Enzyme Activity (relative to DMSO controls)
T11 construct: purchased Reaction Biology Corporation (assay service)

[12] = target: T12, panel of 370 protein kinases (Homo sapiens, UniProt Q8IYT8); details: 2 h, kinase ULK2; read-out: % Enzyme Activity (relative to DMSO controls)
T12 construct: purchased Reaction Biology Corporation (assay service)

[13] = target: T13, panel of 370 protein kinases (Homo sapiens, UniProt Q86Z02); details: 2 h, kinase HIPK1; read-out: % Enzyme Activity (relative to DMSO controls)
T13 construct: purchased Reaction Biology Corporation (assay service)

[14] = target: T14, panel of 370 protein kinases (Homo sapiens, UniProt Q15418); details: 2 h, kinase RSK1; read-out: % Enzyme Activity (relative to DMSO controls)
T14 construct: purchased Reaction Biology Corporation (assay service)

[15] = target: T15, panel of 370 protein kinases (Homo sapiens, UniProt Q5TCX8); details: 2 h, kinase MLK4; read-out: % Enzyme Activity (relative to DMSO controls)
T15 construct: purchased Reaction Biology Corporation (assay service)

[16] = target: T16, panel of 370 protein kinases (Homo sapiens, UniProt P27448); details: 2 h, kinase MARK3; read-out: % Enzyme Activity (relative to DMSO controls)
T16 construct: purchased Reaction Biology Corporation (assay service)

[17] = target: T17, panel of 370 protein kinases (Homo sapiens, UniProt Q8IVH8); details: kinase GLK/MAP4K3
T17 construct: purchased Reaction Biology Corporation (assay service)

[18] = target: T18, panel of 370 protein kinases (Homo sapiens, UniProt O14965); details: 2 h, kinase Aurora A; read-out: % Enzyme Activity (relative to DMSO controls)
T18 construct: purchased Reaction Biology Corporation (assay service)

[19] = target: T19, panel of 370 protein kinases (Homo sapiens, UniProt P52564); details: 2 h, kinase MKK6; read-out: % Enzyme Activity (relative to DMSO controls)
T19 construct: purchased Reaction Biology Corporation (assay service)

[20] = target: T20, panel of 370 protein kinases (Homo sapiens, UniProt Q8N5S9); details: 2 h, kinase CAMKK1; read-out: % Enzyme Activity (relative to DMSO controls)
T20 construct: purchased Reaction Biology Corporation (assay service)

[21] = target: T21, panel of 370 protein kinases (Homo sapiens, UniProt O96017); details: 2 h, kinase CHK2; read-out: % Enzyme Activity (relative to DMSO controls)
T21 construct: purchased Reaction Biology Corporation (assay service)

T17 sequence (Q8IVH8 whole entry): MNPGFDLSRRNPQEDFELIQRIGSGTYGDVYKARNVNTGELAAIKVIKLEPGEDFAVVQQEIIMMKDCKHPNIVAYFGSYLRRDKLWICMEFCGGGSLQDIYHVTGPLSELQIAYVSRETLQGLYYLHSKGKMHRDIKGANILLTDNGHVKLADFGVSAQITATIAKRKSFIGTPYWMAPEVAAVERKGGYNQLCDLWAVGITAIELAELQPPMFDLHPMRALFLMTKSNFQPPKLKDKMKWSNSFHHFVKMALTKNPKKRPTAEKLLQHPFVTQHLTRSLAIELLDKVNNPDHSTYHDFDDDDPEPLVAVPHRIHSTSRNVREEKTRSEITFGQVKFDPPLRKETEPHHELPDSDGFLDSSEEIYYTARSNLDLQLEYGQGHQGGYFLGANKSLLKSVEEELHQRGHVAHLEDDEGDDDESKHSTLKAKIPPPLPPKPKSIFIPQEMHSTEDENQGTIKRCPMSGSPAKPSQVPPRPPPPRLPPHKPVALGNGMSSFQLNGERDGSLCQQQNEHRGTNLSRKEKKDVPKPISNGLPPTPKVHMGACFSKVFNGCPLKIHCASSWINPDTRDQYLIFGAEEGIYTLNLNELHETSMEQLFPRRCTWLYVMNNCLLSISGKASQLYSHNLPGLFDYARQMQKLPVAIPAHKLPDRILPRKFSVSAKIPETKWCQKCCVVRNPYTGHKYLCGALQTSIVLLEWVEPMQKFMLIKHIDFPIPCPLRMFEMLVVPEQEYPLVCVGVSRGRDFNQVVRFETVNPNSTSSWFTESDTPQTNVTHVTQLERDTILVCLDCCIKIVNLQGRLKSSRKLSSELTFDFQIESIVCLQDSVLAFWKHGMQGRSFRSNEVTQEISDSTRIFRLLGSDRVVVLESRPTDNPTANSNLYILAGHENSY
T10 sequence (Q8WXR4 whole entry): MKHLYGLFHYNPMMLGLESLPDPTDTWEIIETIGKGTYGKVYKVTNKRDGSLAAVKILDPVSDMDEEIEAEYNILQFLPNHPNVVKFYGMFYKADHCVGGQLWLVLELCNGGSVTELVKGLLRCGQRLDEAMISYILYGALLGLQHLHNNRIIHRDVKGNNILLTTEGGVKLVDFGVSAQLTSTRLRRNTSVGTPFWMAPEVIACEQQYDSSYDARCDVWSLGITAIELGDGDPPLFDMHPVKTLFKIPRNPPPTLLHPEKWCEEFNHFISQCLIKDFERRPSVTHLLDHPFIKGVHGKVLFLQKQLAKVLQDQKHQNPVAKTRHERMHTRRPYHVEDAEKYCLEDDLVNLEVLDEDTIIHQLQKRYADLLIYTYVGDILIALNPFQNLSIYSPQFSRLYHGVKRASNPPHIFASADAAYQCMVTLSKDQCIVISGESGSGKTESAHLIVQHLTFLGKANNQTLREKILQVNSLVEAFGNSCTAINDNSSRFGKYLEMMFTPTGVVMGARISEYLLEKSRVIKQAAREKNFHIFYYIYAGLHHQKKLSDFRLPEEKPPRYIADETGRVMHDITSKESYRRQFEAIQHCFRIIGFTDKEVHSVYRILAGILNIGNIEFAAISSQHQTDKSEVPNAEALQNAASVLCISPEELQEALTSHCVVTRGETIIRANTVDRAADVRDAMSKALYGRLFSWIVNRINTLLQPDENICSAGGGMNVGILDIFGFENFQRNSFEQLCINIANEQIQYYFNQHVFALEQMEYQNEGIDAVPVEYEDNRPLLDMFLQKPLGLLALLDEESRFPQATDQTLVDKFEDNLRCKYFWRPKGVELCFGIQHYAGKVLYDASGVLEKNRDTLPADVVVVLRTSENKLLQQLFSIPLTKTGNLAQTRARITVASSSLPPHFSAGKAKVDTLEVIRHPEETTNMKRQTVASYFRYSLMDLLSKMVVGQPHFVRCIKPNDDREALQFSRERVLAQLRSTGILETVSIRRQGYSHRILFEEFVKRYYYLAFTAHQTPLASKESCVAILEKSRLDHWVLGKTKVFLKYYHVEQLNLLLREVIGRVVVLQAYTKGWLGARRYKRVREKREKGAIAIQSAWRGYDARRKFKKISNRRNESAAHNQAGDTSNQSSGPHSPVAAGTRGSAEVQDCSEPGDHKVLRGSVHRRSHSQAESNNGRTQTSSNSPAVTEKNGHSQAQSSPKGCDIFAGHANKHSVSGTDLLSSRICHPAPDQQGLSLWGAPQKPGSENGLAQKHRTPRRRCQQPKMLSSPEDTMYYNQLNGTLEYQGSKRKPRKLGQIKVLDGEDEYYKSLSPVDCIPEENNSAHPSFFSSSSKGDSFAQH
T3 sequence (Q8IVT5 whole entry): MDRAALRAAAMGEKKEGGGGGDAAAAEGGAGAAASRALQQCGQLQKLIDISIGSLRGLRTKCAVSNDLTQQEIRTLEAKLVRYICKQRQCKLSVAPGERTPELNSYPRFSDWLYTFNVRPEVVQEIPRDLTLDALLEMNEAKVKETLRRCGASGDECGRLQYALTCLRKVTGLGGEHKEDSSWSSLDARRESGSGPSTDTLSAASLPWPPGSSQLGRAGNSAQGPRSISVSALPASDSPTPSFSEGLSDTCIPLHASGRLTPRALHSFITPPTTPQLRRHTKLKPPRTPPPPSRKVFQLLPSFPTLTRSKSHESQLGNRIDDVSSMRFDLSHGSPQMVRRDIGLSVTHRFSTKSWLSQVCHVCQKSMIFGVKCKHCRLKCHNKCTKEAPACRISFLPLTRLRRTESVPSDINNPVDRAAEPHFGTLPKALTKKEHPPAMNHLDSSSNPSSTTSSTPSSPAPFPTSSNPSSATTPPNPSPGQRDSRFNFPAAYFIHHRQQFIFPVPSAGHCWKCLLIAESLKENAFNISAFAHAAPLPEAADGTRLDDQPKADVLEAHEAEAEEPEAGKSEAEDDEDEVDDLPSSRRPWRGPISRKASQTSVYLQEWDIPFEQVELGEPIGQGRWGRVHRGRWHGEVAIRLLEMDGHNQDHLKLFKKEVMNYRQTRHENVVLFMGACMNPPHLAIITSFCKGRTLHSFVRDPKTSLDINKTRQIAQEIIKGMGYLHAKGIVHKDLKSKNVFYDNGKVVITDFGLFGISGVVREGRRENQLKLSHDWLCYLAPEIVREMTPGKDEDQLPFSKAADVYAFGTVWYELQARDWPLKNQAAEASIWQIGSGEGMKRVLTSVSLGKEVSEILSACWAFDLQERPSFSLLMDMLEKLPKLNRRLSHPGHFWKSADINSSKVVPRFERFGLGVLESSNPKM
T19 sequence (P52564 whole entry): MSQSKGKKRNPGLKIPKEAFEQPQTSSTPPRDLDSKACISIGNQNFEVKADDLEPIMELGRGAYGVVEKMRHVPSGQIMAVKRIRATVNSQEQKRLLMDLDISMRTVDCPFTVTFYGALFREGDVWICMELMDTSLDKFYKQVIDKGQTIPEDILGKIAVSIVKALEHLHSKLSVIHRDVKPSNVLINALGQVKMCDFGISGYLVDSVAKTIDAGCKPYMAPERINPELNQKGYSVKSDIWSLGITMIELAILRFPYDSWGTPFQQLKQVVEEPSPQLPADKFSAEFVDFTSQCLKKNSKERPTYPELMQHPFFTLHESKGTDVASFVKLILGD
T4 sequence (Q14680 whole entry): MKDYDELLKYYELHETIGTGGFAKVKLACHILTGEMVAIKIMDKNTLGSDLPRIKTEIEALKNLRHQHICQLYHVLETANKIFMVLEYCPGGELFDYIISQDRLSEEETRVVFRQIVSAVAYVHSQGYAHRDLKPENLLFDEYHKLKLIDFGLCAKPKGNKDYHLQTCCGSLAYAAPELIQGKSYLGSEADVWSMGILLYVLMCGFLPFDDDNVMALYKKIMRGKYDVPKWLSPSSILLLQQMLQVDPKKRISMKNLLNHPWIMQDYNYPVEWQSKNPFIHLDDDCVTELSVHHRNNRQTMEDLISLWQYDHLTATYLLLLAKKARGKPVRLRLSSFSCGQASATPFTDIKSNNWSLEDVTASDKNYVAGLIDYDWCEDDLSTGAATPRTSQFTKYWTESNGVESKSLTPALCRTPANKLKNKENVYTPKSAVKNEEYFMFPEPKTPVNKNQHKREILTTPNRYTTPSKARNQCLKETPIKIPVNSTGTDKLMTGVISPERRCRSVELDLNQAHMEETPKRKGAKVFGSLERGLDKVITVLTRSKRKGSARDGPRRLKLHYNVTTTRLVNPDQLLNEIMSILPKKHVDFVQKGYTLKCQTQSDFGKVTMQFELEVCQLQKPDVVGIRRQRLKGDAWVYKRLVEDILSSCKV
T5 sequence (P36897 34-503): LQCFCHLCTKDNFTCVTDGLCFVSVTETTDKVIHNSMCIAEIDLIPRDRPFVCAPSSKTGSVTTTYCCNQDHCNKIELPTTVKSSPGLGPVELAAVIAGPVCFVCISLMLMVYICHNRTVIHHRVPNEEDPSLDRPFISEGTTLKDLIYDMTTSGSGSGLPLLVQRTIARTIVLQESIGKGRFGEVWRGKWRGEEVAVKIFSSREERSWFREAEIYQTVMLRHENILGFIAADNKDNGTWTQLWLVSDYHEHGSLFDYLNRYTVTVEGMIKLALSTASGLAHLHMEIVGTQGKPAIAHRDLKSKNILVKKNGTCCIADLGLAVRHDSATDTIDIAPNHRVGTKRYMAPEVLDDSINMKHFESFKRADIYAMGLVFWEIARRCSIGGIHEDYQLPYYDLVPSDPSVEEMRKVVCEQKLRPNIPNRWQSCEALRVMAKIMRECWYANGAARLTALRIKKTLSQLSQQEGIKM
T18 sequence (O14965 whole entry): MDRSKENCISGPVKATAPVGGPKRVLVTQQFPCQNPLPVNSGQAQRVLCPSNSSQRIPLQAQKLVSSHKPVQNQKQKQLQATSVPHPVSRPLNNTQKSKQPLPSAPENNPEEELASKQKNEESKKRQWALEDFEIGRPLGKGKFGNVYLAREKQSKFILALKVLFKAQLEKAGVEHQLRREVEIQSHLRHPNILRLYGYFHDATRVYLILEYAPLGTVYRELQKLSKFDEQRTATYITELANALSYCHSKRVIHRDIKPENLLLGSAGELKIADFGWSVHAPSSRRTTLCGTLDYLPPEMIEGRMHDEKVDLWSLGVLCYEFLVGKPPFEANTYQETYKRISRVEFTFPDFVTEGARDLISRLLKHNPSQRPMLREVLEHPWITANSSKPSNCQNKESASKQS

CCN1CCN(C(=O)c2ccc(Nc3ncc(F)c(-c4ccc5nc(N(C)C)sc5c4)n3)nc2)CC1 [YK-2-69]
remaining activity at 1 µM [1]: 103% | remaining activity at 1 µM [2]: 104% | remaining activity at 1 µM [3]: 94.3% | remaining activity at 1 µM [4]: 101% | remaining activity at 1 µM [5]: 115% | remaining activity at 1 µM [6]: 94.6% | remaining activity at 1 µM [7]: 101% | remaining activity at 1 µM [8]: 97.7% | remaining activity at 1 µM [9]: 98.3% | remaining activity at 1 µM [10]: 106% | remaining activity at 1 µM [11]: 103% | remaining activity at 1 µM [12]: 97.9% | remaining activity at 1 µM [13]: 106% | remaining activity at 1 µM [14]: 102% | remaining activity at 1 µM [15]: 104% | remaining activity at 1 µM [16]: 103% | % Enzyme Activity (relative to DMSO controls) [17]: 96.94% and 93.55% | remaining activity at 1 µM [18]: 80.6% | remaining activity at 1 µM [19]: 89.5% | remaining activity at 1 µM [20]: 95.7% | remaining activity at 1 µM [21]: 97.6%

— paper PMC9133015 (Nature Communications, 2022)
